Test in all cases: inhibition of tumour cell growth, NCI panel, 48 h
Assay [1] concerns HS 578T breast.
The test system of assay [2] is UACC-62 melanoma.
The subject of assay [3] is T-47D breast.
Assay [4] has as its system PC-3 prostate.
Assay [5] deals with UACC-257 melanoma.
The subject of assay [6] is A549 NSCLC.
Assay [7] relates to CCRF-CEM leukemia.
Assay [8] has as its system SN12C renal.
Assay [9] deals with HOP-92 NSCLC.
Assay [10] relates to MOLT-4 leukemia.

Several values for one entry are separate records, joined by “and”; a condition that tells them apart may be missing. Equal entries are not always repeated.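 All cell lines were grown in 96-well plates and treated with compound for 48 hours. The concentration for 50% growth inhibition is given as GI50. At the TGI there is no net growth.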

Consider `Nc1nc(N)c2cc(Sc3ccc(Cl)cc3)ccc2n1`, for which the GI50 was 1.72 µM in assay [1]; 0.795 µM in assay [2]; 1.61 µM in assay [3]; 0.592 µM in [4]; 1.41 µM in [5]; 0.254 µM in assay [6]. Besides, the GI50 was 0.815 µM in assay [7], 2.91 µM in assay [8], 1.51 µM in assay [9] and 1.9 µM in [10]. Further, the TGI in assay [1] came out at 12.4 µM; in [2], 14.5 µM; in assay [3] it was 3.33 µM; in [4], 13.8 µM; in [5], 5.72 µM; in assay [6], 12.9 µM. For the same compound, the TGI in assay [7] was found to be 17.4 µM; in [8], 17.9 µM; in assay [9], 7 µM; in [10], 11.1 µM.
Regarding `O=C1NC(=N[C@@H]2C[C@H]2c2ccccc2)S/C1=C\c1ccc2ncccc2c1`, the GI50 was 1.25 µM in [1]; 1.2 µM in assay [2]; 1.81 µM in [3]; 3.27 µM in [4]; 5.17 µM in assay [5]; 0.976 µM in [6]. The GI50 in assay [7] is 1.31 µM; in [8] it was 1.68 µM; in assay [9], 3.68 µM; in assay [10], 4.29 µM. The TGI came to 11.6 µM in [1]; 5.61 µM in assay [2]; 13.8 µM in [3]; 9.09 µM in [4]; 18.9 µM in assay [5]; 6.71 µM in [6]. Also, the TGI in assay [7] was over 25 µM; in assay [8] it was over 25 µM; in assay [9], 10.1 µM; in assay [10], 21.8 µM.
On to `CCN1C2=C(SC(=S)C1=C1SC(C(=O)c3ccccc3)=C(C(=O)c3ccccc3)S1)SC(=Nc1ccccc1)C2=O`, for which the GI50 in assay [1] was 2.58 µM; in assay [2], 12 µM; in assay [3], 19.6 µM; in assay [4] it was 17.6 µM; in [5] it was over 100 µM; in assay [6] it was over 100 µM. For the same compound, the GI50 in [7] was 0.633 µM; in assay [8], 46 µM; in assay [9], 22.5 µM; in assay [10], 0.625 µM. In addition, the TGI in assay [1] was 72.9 µM; in assay [2], over 70.1 µM; in [3], over 100 µM; in assay [4] it was over 100 µM; in [5], over 100 µM; in [6], over 100 µM. For the same compound, the TGI in [7] was over 100 µM; in [8], over 100 µM; in assay [9], over 100 µM; in [10], over 22.2 µM.
Regarding `Nc1ncnc2occ(-c3ccc(NC(=O)Nc4cc(C(F)(F)F)ccc4F)cc3)c12`, the GI50 was 0.773 µM and 2.09 µM in assay [1]; 4.29 µM and 2.33 µM in [2]; 6.42 µM and 3.5 µM in assay [3]; 5.92 µM and 5.35 µM in [4]; 6.19 µM and 4.11 µM in assay [5]; 6.44 µM and 3.16 µM in assay [6]. Moreover, the GI50 in assay [7] was 7.55 µM and 1.58 µM; in assay [8] it was 4 µM and 1.47 µM; in assay [9], 3.98 µM and 3.4 µM; in [10], 7.47 µM and 3.7 µM. In addition, the TGI in assay [1] is 9.1 µM and 9.04 µM; in assay [2], 9.76 µM and 5.8 µM; in assay [3] it was 16.9 µM and 10.9 µM; in [4] it was 15.8 µM and 16.1 µM; in assay [5], 15.6 µM and 8.64 µM; in [6] it was 18.8 µM and 11.5 µM. Further, the TGI in assay [7] was 22.8 µM and > 25 µM; in assay [8], 21.2 µM and 11.6 µM; in assay [9], 12.1 µM and 11.5 µM; in assay [10], 23.6 µM and 14.4 µM.
In the case of `CCCC(c1cc(C(C)(C)C)c(O)cc1C)c1cc(C(C)(C)C)c(O)cc1C`, the TGI in assay [1] came to 9.79 µM; in [2], 4.95 µM; in [3], 8.92 µM; in assay [4] it was 8.78 µM; in assay [5], 5.69 µM; in assay [6], 9.78 µM. Also, the TGI in assay [7] was 6.88 µM; in assay [8], 3.81 µM; in assay [9] it was 22.5 µM; in [10], 5.41 µM.
Consider `CC(C)[C@]12O[C@H]1[C@@H]1O[C@]13[C@]1(O[C@H]1C[C@H]1C4=C(CC[C@@]13C)C(=O)OC4)[C@@H]2OC(=O)OC(C)(C)C`, for which the GI50 in assay [1] was 0.019 µM; in [2], 0.0178 µM; in [3], 0.027 µM; in [4], 0.0238 µM; in assay [5], 0.0176 µM; in assay [6], 0.0206 µM. Moreover, the GI50 in assay [7] is 0.0377 µM; in assay [8], 0.0261 µM; in assay [9], 0.0448 µM; in assay [10], 0.0156 µM. Besides, the TGI in [1] is 0.0713 µM; in assay [2], 0.0571 µM; in assay [3] it was over 100 µM; in assay [4], over 41.3 µM; in assay [5], 0.0544 µM; in assay [6], over 100 µM. Besides, the TGI in [7] and in [8] was over 100 µM throughout.
`CSc1nc(SC)c2cnn(-c3ccnc4cc(Cl)ccc34)c2n1`: the GI50 in assay [1] was 23.3 µM; in assay [2], 33.9 µM; in assay [3], over 100 µM; in assay [4], over 82.3 µM; in assay [5] it was over 49.7 µM; in [6], over 85.7 µM. The GI50 is over 100 µM in assay [7], 51 µM in assay [8], over 63.6 µM in assay [9] and 42.5 µM in assay [10]. The TGI was over 100 µM in assay [1]; over 100 µM in assay [2]; over 100 µM in assay [3]; over 100 µM in assay [4]; over 86.4 µM in assay [5]; over 100 µM in assay [6]. The TGI is over 100 µM in [7], over 100 µM in assay [8], over 100 µM in assay [9] and over 89.6 µM in [10].
On to `CC(=O)NS(=O)(=O)c1ccc(-n2nc(-c3ccccc3)cc2-c2cc(O)ccc2O)cc1`, for which the GI50 in assay [1] was over 100 µM; in assay [2] it was 62 µM; in assay [3], over 100 µM; in [4] it was over 100 µM; in assay [5] it was over 100 µM; in [6] it was over 100 µM. Moreover, the GI50 in assay [7], in assay [8], in [9] and in assay [10] was over 100 µM each time. Further, the TGI in assay [1], in assay [2], in assay [3], in assay [4], in assay [5] and in assay [6] was over 100 µM in each case. Also, the TGI in assay [7], in assay [8], in assay [9] and in [10] was over 100 µM in each case.
`NS(=O)(=O)c1ccc(N=Nc2c(O)[nH]c3cccc(CCc4ccncc4)c23)cc1`: the GI50 in [1], in [2], in [3], in [4], in assay [5] and in assay [6] was over 25 µM each time. For the same compound, the GI50 in [7], in [8], in assay [9] and in [10] was over 25 µM throughout. For the same compound, the TGI in [1], in assay [2], in assay [3], in assay [4], in [5] and in assay [6] was over 25 µM throughout. Moreover, the TGI in assay [7], in assay [8], in assay [9] and in [10] was over 25 µM throughout.
Consider `COc1cc2cc(Oc3ccc(NC(=O)Nc4ccc(F)c(C(F)(F)F)c4)cc3)c(C)nc2cc1OCCN1CCOCC1`, for which the GI50 is 2.12 µM in assay [1]; 1.36 µM in [2]; 1.91 µM in assay [3]; 1.44 µM in assay [4]; 1.75 µM in [5]; 2.57 µM in assay [6]. Also, the GI50 in [7] is 1.72 µM; in assay [8] it was 2.65 µM; in assay [9], 1.31 µM; in [10], 1.86 µM. Moreover, the TGI in assay [1] is 8.9 µM; in [2] it was 4.24 µM; in assay [3], 32.1 µM; in assay [4], 10.1 µM; in [5] it was 5.17 µM; in assay [6], 34.3 µM. Moreover, the TGI in [7] came to 11.5 µM; in assay [8], 15.5 µM; in [9], 4.96 µM; in assay [10] it was 11.4 µM.
Turning to `CCOC(=O)Nc1ccc2c3c(cccc13)-c1ccccc1-2`, the GI50 in assay [1] is 3.91 µM; in assay [2], 3.71 µM; in assay [3], 2.57 µM; in assay [4], 9.45 µM; in assay [5], over 100 µM; in [6] it was 6.03 µM. Moreover, the GI50 in assay [7] was 7.85 µM; in assay [8], 5.98 µM; in [9] it was over 100 µM; in assay [10], 8.5 µM. The TGI in assay [1], in assay [2], in assay [3], in [4], in assay [5] and in [6] was over 100 µM throughout. For the same compound, the TGI in assay [7], in assay [8], in assay [9] and in assay [10] was over 100 µM in each case.

These data come from PubChem BioAssay (NCI).
